According to ChEMBL document CHEMBL1127662, “3-Alkoxybenzo[b]thiophene-2-carboxamides as inhibitors of neutrophil-endothelial cell adhesion” (J Med Chem, 1994):

Assays:
HUVEC [1] = test: (§1) Tested for adhesion of neutrophils to human umbilical vein endothelial cell at the dose of 100 uM; format: functional
HUVEC [2] = test: as §1; format: functional, cell-based

CC(C)Oc1c(C(N)=O)sc2ccccc12
inhibition at 100 µM (HUVEC [1]): 60%

COc1ccc2sc(C(N)=O)c(OC(C)(C)C)c2c1
inhibition at 100 µM (HUVEC [1]): 97%

Cc1ccc2sc(C(N)=O)c(OC(C)C)c2c1
inhibition at 100 µM (HUVEC [1]): 61%

CC(C)Oc1c(C(N)=O)sc2ccc(OCc3ccccc3)cc12
inhibition at 100 µM (HUVEC [1]): < 4%

COc1ccc2c(c1)C(OC(C)C)=C(C(N)=O)S2(=O)=O
Inhibition (HUVEC [2]): < 4%

CCNC(=O)c1sc2ccc(OC)cc2c1OC(C)C
inhibition at 100 µM (HUVEC [1]): 64%

COc1ccc2sc(C(N)=O)c(OC)c2c1
inhibition at 100 µM (HUVEC [1]): 60%

COc1ccc2c(c1)c(OC(C)C)c(C(N)=O)[s+]2[O-] (stereo not drawn)
IC50 (HUVEC [2]): 8.7 µM

COc1cccc2c(OC(C)C)c(C(N)=O)sc12
inhibition at 100 µM (HUVEC [1]): 35%

CC(C)Oc1c(C(N)=O)sc2ccc([N+](=O)[O-])cc12
Inhibition (HUVEC [2]): 40%

CC(C)Oc1c(C(N)=O)sc2ccc(O)cc12
IC50 (HUVEC [2]): 6.4 µM

COc1ccc2sc(C(=O)Nc3ccccc3)c(OC(C)C)c2c1
inhibition at 100 µM (HUVEC [1]): 12%

COc1ccc2sc(C(N)=O)c(Oc3ccccc3)c2c1
inhibition at 100 µM (HUVEC [1]): 59%

CC(C)Oc1c(C(N)=O)sc2ccc(N)cc12
inhibition at 100 µM (HUVEC [1]): 49%

CC(C)Oc1c(C(N)=O)sc2ccc(Cl)cc12
inhibition at 100 µM (HUVEC [1]): 72%

COc1ccc2c(OC(C)C)c(C(N)=O)sc2c1
inhibition at 100 µM (HUVEC [1]): 24%

COc1ccc2sc(C(N)=O)c(OCc3ccccc3)c2c1
inhibition at 100 µM (HUVEC [1]): 57%

CNC(=O)c1sc2ccc(OC)cc2c1OC(C)C
IC50 (HUVEC [2]): 15 µM
